Data as given in patent US20060003896A1, “Novel diterpenoid compounds imparting stress resistance to plants” (National Institute of Agrobiological Sciences, priority 2002, published 2006).

Key:
WIPK = WIPK activity measurement (MBP phosphorylation by anti-WIPK immune complex) in treated tobacco leaves; assay type: cell-based, Nicotiana tabacum cv. Samsun NN
Protocol: The WIPK induced activity assay was conducted as follows: A filter paper was spread in a glass Petri dish of 3 cm inside diameter, onto which the test solution for assay was added, organic solvent was removed under the flow of nitrogen gas, and 10 mM Mes-NaOH (pH 5.6) of 1 ml was added, on which three leaf disks (diameter 9 mm) stamped out of the tobacco leaves were placed per Petri dish and cultured at 24° C. In two hours, the disks were collected and immediately frozen in liquid nitrogen to be used in WIPK activity measurement that was conducted following the method described in Seo et al. (1999) Plant Cell 11, 289-291. The outline is as follows:
Crude protein of 50 μg and anti-WIPK antibody were reacted and the myelin basic protein phosphorylation activity of WIPK in the resultant immune complex was measured.
(§1) Isolated material was dissolved in dimethyl sulfoxide (DMSO) and diluted with 10 mM Mes-NaOH (pH 5.6) to an adequate concentration. If it was used in an assay, the DMSO concentration was kept below 0.1%. […] 10 mM Mes-NaOH (pH 5.6) without active substance of the invention was used as a control group. In a certain amount of time, the leaves were collected and immediately frozen in liquid nitrogen to conduct WIPK activity measurement or RNA extraction for Northern blot analysis. WIPK activity measurement, RNA extraction and Northern blot analysis were performed following Seo et al. (1999) plant Cell 11, 289-291. WIPK activity was measured 15 minutes after the subject was allowed to absorb the isolated compound at the given concentration through the petiole. Only buffer was absorbed in a control group. As another control group (healthy leaf), leaves were cut from tobacco plant body to be immediately subjected to WIPK activity measurement. For proteinase inhibitor II (PI-II), basic PR-1, basic PR-2 genes and ACO, transcription product amounts of PI-II, basic PR-1, basic PR-2 genes and ACO-coding gene were measured after allowing the subject absorb the isolated compound at the given concentration through the petiole for a period of time. As a control group, only buffer was absorbed. The outline is as follows:
(§2) Using natural isolated substances, preparations at concentrations of 10 and 100 pM, and 1 and 100 nM were prepared and these natural preparations or water were penetrated into tobacco leaf disks, followed by sampling at 30 minutes after treatment, to measure the MBP phosphorylation activity of WIPK and SIPK as described above.

SIPK = SIPK activity measurement (MBP phosphorylation by anti-SIPK immune complex) in treated tobacco leaves; assay type: cell-based, Nicotiana tabacum cv. Samsun NN
Protocol: As an active substance, the substance isolated in Example 1 was used as a standard. The isolated substance was dissolved in dimethyl sulfoxide (DMSO) and diluted to adequate concentration (0.3, 1.5 and 3 ng/ml) with 10 mM Mes-NaOH (pH 5.6). If it was used in an assay, the DMSO concentration was kept below 0.1%. […] 10 mM Mes-NaOH (pH 5.6) without active substance of the invention was used as a control group. In a certain amount of time, the leaves were collected and immediately frozen in liquid nitrogen to measure the SIPK activity. The measurement was conducted as follows:
Crude protein of 50 μg and anti-SIPK antibody were reacted and the myelin basic protein (MBP) phosphorylation activity of SIPK in the resultant immune complex was measured.
as §2

ACO-coding gene = assay: Northern blot analysis of transcription products in treated tobacco leaves; assay type: cell-based, Nicotiana tabacum cv. Samsun NN; conditions: through the petiole
Protocol: as §1, with “follows: Nucleic acid hybridization reaction was performed on nylon membrane containing 20 μg total RNA with ^32P-radiolabeled cDNA of tobacco PI-II, basic PR-1, basic PR-2 genes and ACO-coding gene. After the membrane was washed it was used to expose to an X-ray film.” for “follows:”

basic PR-1 gene = assay: as above; assay type: cell-based, Nicotiana tabacum cv. Samsun NN; conditions: through the petiole
Protocol: as §1, with “follows: Nucleic acid hybridization reaction was performed on nylon membrane containing 20 μg total RNA with ^32P-radiolabeled cDNA of tobacco PI-II, basic PR-1, basic PR-2 genes and ACO-coding gene. After the membrane was washed it was used to expose to an X-ray film.” for “follows:”

basic PR-2 gene = assay: as above; assay type: cell-based, Nicotiana tabacum cv. Samsun NN; conditions: through the petiole
Protocol: as §1, with “follows: Nucleic acid hybridization reaction was performed on nylon membrane containing 20 μg total RNA with ^32P-radiolabeled cDNA of tobacco PI-II, basic PR-1, basic PR-2 genes and ACO-coding gene. After the membrane was washed it was used to expose to an X-ray film.” for “follows:”

[1] = system: proteinase inhibitor II gene; assay: as above; assay type: cell-based, Nicotiana tabacum cv. Samsun NN
Protocol: as §1, with “follows: Nucleic acid hybridization reaction was performed on nylon membrane containing 20 μg total RNA with ^32P-radiolabeled cDNA of tobacco PI-II, basic PR-1, basic PR-2 genes and ACO-coding gene. After the membrane was washed it was used to expose to an X-ray film.” for “follows:”

JA = assay: Intrinsic JA level in tobacco leaves after absorption through the petiole; assay type: cell-based; conditions: 3-, 6-, 12- or 24-hours culture
Protocol: To evaluate whether the induction of basic pathogenesis-related protein gene (PR-1 and PR-2) and proteinase inhibitor II gene by synthetic substance occurred through JA or SA, 100 nM or 1 μM WAF-1 or water was absorbed into tobacco leaves through the petiole, followed by culture at 24° C., to measure the intrinsic level of JA.

SA = assay: Intrinsic SA level in tobacco leaves after absorption through the petiole; assay type: cell-based; conditions: 3-, 6-, 12- or 24-hours culture
ethylene = assay: Release of ethylene from treated tobacco leaf; assay type: cell-based
Protocol: Ethylene acts as a signal in the induction of basic PR protein of tobacco plant, so the release of ethylene was measured after externally giving WAF-1 to a tobacco leaf as above to evaluate the effects of synthetic substance on ethylene accumulation.

WIZZ gene = assay: RNA gel blotting of WIZZ transcript in tobacco leaf disks; assay type: cell-based; conditions: 1 nM, 30 minutes after penetrance
Protocol: The transition in expression of the WIZZ transcript after stimulation with WAF-1 in this invention was ascertained using the following method. Leaf disks stamped out of tobacco leaves were penetrated with 1 nM WAF-1 solution or water and collected at 30 minutes after penetrance to be used for total RNA extraction. Total RNA extraction followed the method described in Seo et al. Plant Cell 1999, 11, 289-299. Isolated total RNA was subjected to RNA gel blotting analysis following the above procedure. A fragment, whose sequence corresponded to bases 877-1211 in the WIZZ cDNA (335 bp) was amplified, and used as a probe. As an internal standard probe, actin cDNA (described in Seo et al. 2000 12, 917-932) was also used. An RNA gel blot membrane containing 20 μg total RNA per lane was analized.

vermin = assay: Presenting vermin to rice administered with the substance; assay type: in vivo; conditions: vermin presented
Protocol: Therefore, an experiment was conducted by administering this substance to plants and presenting vermin to the administered plant. In this example, rice was used as a target.

[2] = system: Arabidopsis (Arabidopsis thaliana); assay: Growth of periphery and height of stem after spraying; assay type: in vivo; conditions: sprayed, 300, 100 and 30 ng/ml, 24° C.
Protocol: (§3) In this Example, 15-day-old Arabidopsis (Arabidopsis thaliana), 1-month-old tobacco (Nicotiana tabacum cv. Samsun—NN), or 20-day-old rice (Oryza sativa) was used to provide plant bodies. The compound of this invention was dissolved in dimethyl sulfoxide (DMSO) and diluted with 10 mM Mes-NaOH (pH 5.6) to an adequate concentration (300, 100 and 30 ng/ml). 10 mM of Mes-NaOH containing the compound of this invention at the given concentration was sprayed to tobacco and rice plant bodies, followed by culture at 24° C. As a control group, 10 mM Mes-NaOH (pH 5.6) free of the compound of this invention was used. In a certain amount of time, the periphery and the height of stem above ground level were measured in rice, Arabidopsis and tobacco plant bodies.

rice (Oryza sativa) = assay: as above; assay type: in vivo; conditions: sprayed, 300, 100 and 30 ng/ml, 24° C.
Protocol: as §3

[3] = system: tobacco (Nicotiana tabacum cv. Samsun—NN); assay: as above; assay type: in vivo; conditions: sprayed, 300, 100 and 30 ng/ml, 24° C.
Protocol: as §3

petunia plant body = assay: Flowering of petunia plant bodies after spraying; assay type: in vivo
Protocol: In this example, 1-month-old petunia plant body was used. The compound of this invention was dissolved in dimethyl sulfoxide (DMSO) and diluted with 10 mM Mes-NaOH (pH 5.6) to an adequate concentration (300, 100 and 30 ng/ml). 10 mM Mes-NaOH containing the compound of this invention at the given concentration was sprayed on the petunia plant bodies, followed by culture at 24° C. In a control group, 10 mM Mes-NaOH (pH 5.6) without the compound of this invention was used. After a certain amount of time, observation of the gross flowering features of the plant bodies was performed. The administration of the compound of this invention to plants was then discontinued, only buffer was sprayed, and the flowering was observed.

TMV = assay: Defense of tobacco against TMV infection (necrotic lesion size, TMV coat protein); assay type: in vivo, tobacco mosaic virus
Protocol: To complete the infection, this healthy leaf was allowed to stand at room temperature for 30 minutes and washed with water removing the silicon carbide, after air drying, was put into a transparent plastic box spread with wet filter papers, followed by culture at 30° C. for 40 hours, then at 20° C. for 6 hours.
In this Example, the substance in this invention was administered to non-TMV-infected tobacco as a target. TMV stimulation was then given, under the same conditions as those in Example 1, to plants administered with the substance of this invention at the concentrations shown in FIG. 12 and tp control plant not administered to measure the size of necrotic lesions and the amount of TMV coat protein.

[4] = 1, 5 and 10 nM through the petiole
[5] = tobacco leaf disks, 30 minutes after treatment

CC(/C=C/[C@@H]1[C@@]2(C)CCCC(C)(C)[C@@H]2CC[C@@]1(C)O)=C\CO [WAF-1, (11E,13E)-labda-11,13-diene-8α,15-diol]
time at which WIPK activity was maximized (WIPK; [4]): 15 min | time at which induction of WIPK activity was observed (WIPK; [4]): 5 min | WIPK activity at 30 minutes (WIPK; 1, 5 and 10 nM through the petiole, 30 minutes): retained maximum activity | induction of WIPK activity (WIPK; each concentration of FIG. 2A given to leaf through the petiole, 15 minutes): induction of WIPK activity at any concentration | concentration above which activation of WIPK is significant (WIPK; [5]): > 10 pM | time at which induction of SIPK activity was maximized (SIPK; [4]): 15 min | induction of SIPK activity (SIPK; each concentration of FIG. 4 (0.3, 1.5 and 3 ng/ml) through the petiole, 15 minutes): induction of SIPK activity at any concentration | concentration above which activation of SIPK is significant (SIPK; [5]): > 10 pM | accumulation of ACO (ACO-coding gene): accumulation | accumulation of basic PR-1 (basic PR-1 gene): accumulation | accumulation of basic PR-2 (basic PR-2 gene): accumulation | amount of proteinase inhibitor II transcript compared with control group ([1]; 16 hours): significantly more | time at which accumulation of transcription products of proteinase inhibitor II gene was detected ([1]; examined in 2, 6 and 16 hours, concentration of FIG. 3, through the petiole): 16 h | amount of JA in treated leaves (JA; 100 nM): at the same level as those treated with water | amount of JA in treated leaves (JA; 1 AM (so in the source)): at the same level as those treated with water | amount of SA in treated leaves (SA; 100 nM): at the same level as those treated with water | amount of SA in treated leaves (SA; 1 AM (so in the source)): at the same level as those treated with water | level of ethylene released from leaves, relative to leaf treated with water (ethylene; 100 nM): 1.2 times | level of ethylene released from leaves, relative to leaf treated with water (ethylene; 1 μM): 1.4 times | level of WIZZ transcript compared with leaf disks impregnated with water (WIZZ gene): higher | growth in administered rice compared with rice not administered (vermin): Growth was regulated | growth of periphery and height of stem vs control group [2]: delay in growth of the periphery and height of stem | growth of height above ground level vs control group (rice (Oryza sativa)): growth of height above ground level was observed | growth of periphery and height of stem vs control group [3]: delay in growth of the periphery and height of stem | flowering after discontinuation of administration (petunia plant body; only buffer sprayed): observation of flowering | flowering vs control group (petunia plant body; sprayed, 300, 100 and 30 ng/ml, 24° C.): delay in flowering

(11E,13E)-labda-11,13-diene-8α,15-diol [WAF-1]
TMV coat protein amount (TMV; tobacco leaf, 100 pM or 100 nM vs water): decrease | concentration above which the size of necrotic lesions decreased (TMV; tobacco, TMV stimulation, 10 pM to 100 nM, dose-dependent): higher than 100 pM
